Where a name gives a salt, the structure may show the parent alone.
Each compound was assayed on Acinetobacter baumannii ATCC17961 (assay: Antimicrobial susceptibility testing: 90% growth inhibitory concentration (IC90) determination). Conditions: Acinetobacter baumannii ATCC17961; Iso-Sensitest broth; growth by OD 600 nm over 16 h; 35±2° C.; read-out: ATCC 17961 IC90.
Format: cell-based
Method in brief: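 Twofold serial dilutions (e.g. 50 to 0.097 μM final) in Iso-Sensitest broth, inoculated at ~5×10^(5) CFU/ml, incubated at 35±2° C. OD600 read every 20 min over 16 h; IC90 derived from growth inhibition during logarithmic growth.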
COc1ccc(-c2cnc(C(=O)Nc3ccc(C(=O)N4CCN(C(=O)C[N+]5(C)CCC(O)C5)CC4)c(Cl)c3)n2C)c(F)c1F (stereo not shown) [Example C29, N-[3-chloro-4-[4-[2-(3-hydroxy-1-methyl-pyrrolidin-1-ium-1-yl)acet-yl]piperazine-1-carbonyl]phenyl]-5-(2,3-difluoro-4-methoxy-phenyl)-1-methyl-imid-azole-2-carbox-amide; formate] was tested, and the IC90 was 100 nM.
Compound Cn1c(-c2ccc(OC(F)F)c(F)c2F)cnc1C(=O)Nc1ccc(C(=O)N2CCN(C(=O)C3CC[N+](C)(CC(=O)O)CC3)CC2)c(Cl)c1 (stereo not shown) [Example C31, 2-[4-[4-[2-chloro-4-[[5-[4-(difluorometh-oxy)-2,3-difluoro-phen-yl]-1-methyl-imidazole-2-carbonyl]amino]-benzoyl]piper-azine-1-carbon-yl]-1-methyl-piperidin-1-ium-1-yl]acetic acid; 2,2,2-trifluoro-acetate] has an IC90 of 410 nM.
COc1ccc(-c2cnc(C(=O)Nc3ccc(C(=O)N4CCN(C(=O)CCC[N+](CCCN)(CCCN)CC(=O)O)CC4)c(Cl)c3)n2C)c(F)c1F [Example C34, bis(3-aminopropyl)-(carboxymethyl)-[4-[4-[2-chloro-4-[[5-(2,3-difluoro-4-methoxy-phenyl)-1-methyl-imidazole-2-carbonyl]amino]benzoyl]piperazin-1-yl]-4-oxo-butyl]ammonium; formate] gave an IC90 of 570 nM.
In the case of Cn1c(-c2ccc(OC(F)F)c(F)c2F)cnc1C(=O)Nc1ccc(C(=O)N2CCN(C(=O)C3CC[N+](C)(CC4CNC4)CC3)CC2)c(F)c1 (stereo not shown) [Example C42, N-[4-[4-[1-(azet-idin-3-ylmethyl)-1-methyl-piper-idin-1-ium-4-carbonyl]piper-azine-1-carbon-yl]-3-fluoro-phenyl]-5-[4-(difluorometh-oxy)-2,3-difluoro-phenyl]-1-methyl-imidazole-2-car-boxamide; 2,2,2-trifluoroacetate; 2,2,2-trifluoro-acetic acid], the IC90 is reported as 100 nM.
COc1ccc(-c2cnc(C(=O)Nc3ccc(C(=O)N4CCC(NC(=O)[C@@H]5C[C@@H](O)C[N+]5(C)C)CC4)c(Cl)c3)n2C)c(F)c1F [Example C43, N-[3-chloro-4-[4-[[(2S,4R)-4-hydroxy-1,1-dimethyl-pyrrolidin-1-ium-2-carbonyl]amino]piperidine-1-carbonyl]phenyl]-5-(2,3-difluoro-4-methoxy-phenyl)-1-methyl-imidazole-2-carboxamide;formate] gave an IC90 of 290 nM.

Same assay, conditions: Acinetobacter baumannii, ATCC17961, 16 h, read-out: ATCC 17961 IC90, Acinetobacter baumannii ATCC17961; Iso-Sensitest broth; growth by OD 600 nm over 16 h; 35±2° C.
For COc1ccc(-c2cnc(C(=O)Nc3ccc(C(=O)N4CCN(C(=O)C5CC[N+](CCCN)(CC(=O)O)CC5)CC4)c(Cl)c3)n2C)c(F)c1F (stereo not shown) [Example C32, 2-[1-(3-aminopropyl)-4-[4-[2-chloro-4-[[5-(2,3-difluoro-4-methoxy-phenyl)-1-methyl-imidazole-2-carbonyl]amino]benzoyl]piperazine-1-carbonyl]piperidin-1-ium-1-yl]acetic acid; formate], the IC90 was 810 nM.
COc1ccc(-c2cnc(C(=O)Nc3ccc(C(=O)N4CCN(C(=O)C5CC[N+](CC(=O)O)(CC6CNC6)CC5)CC4)c(Cl)c3)n2C)c(F)c1F (stereo not shown) [Example C33, 2-[1-(azetidin-3-ylmethyl)-4-[4-[2-chloro-4-[[5-(2,3-difluoro-4-methoxy-phenyl)-1-methyl-imidazole-2-carbonyl]amino]benzoyl]piperazine-1-carbonyl]piperidin-1-ium-1-yl]acetic acid; formate] showed an IC90 of 490 nM.
For COc1ccc(-c2cnc(C(=O)Nc3ccc(C(=O)N4CCN(C(=O)CCC[N+](C)(CCCN)CC(=O)O)CC4)c(Cl)c3)n2C)c(F)c1F (stereo not shown) [Example C35, 3-aminopropyl-(carboxymethyl)-[4-[4-[2-chloro-4-[[5-(2,3-difluoro-4-methoxy-phenyl)-1-methyl-imidazole-2-carbonyl]amino]beuzoyl]piperazin-1-yl]-4-oxo-butyl]-methyl-ammonium formate], the IC90 was 510 nM.
COc1ccc(-c2cnc(C(=O)Nc3ccc(C(=O)N4CCN(C(=O)N5CC[N+](C)(CC(=O)O)CC5)CC4)c(Cl)c3)n2C)c(F)c1F [Example C36, 2-[4-[4-[2-chloro-4-[[5-(2,3-difluoro-4-methoxy-phenyl)-1-methyl-imidazole-2-carbonyl]amino]benzoyl]piperazine-1-carbonyl]-1-methyl-piperazin-1-ium-1-yl]acetic acid formate] gave an IC90 of 1100 nM.
Compound COc1ccc(-c2cnc(C(=O)Nc3ccc(C(=O)N4CCN(C(=O)N5C[C@@H]6C[N+](CCCN)(CC(=O)O)C[C@@H]6C5)CC4)c(Cl)c3)n2C)c(F)c1F (stereo partly shown) [Example C37, hydrochloride] has an IC90 of 340 nM.
Work on COc1ccc(-c2cnc(C(=O)Nc3ccc(C(=O)N4CCN(C(=O)N5CC[N+](CCCN)(CC(=O)O)CC5)CC4)c(Cl)c3)n2C)c(F)c1F [Example C38, 2-[1-(3-aminopropyl)-4-[4-[2-chloro-4-[[5-(2,3-difluoro-4-methoxy-phenyl)-1-methyl-imidazole-2-carbonyl]amino]benzoyl]piperazine-1-carbonyl]piperazin-1-ium-1-yl]acetic acid formate] yielded an IC90 of 730 nM.
In the case of COc1ccc(-c2cnc(C(=O)Nc3ccc(C(=O)N4CCN(C(=O)C5CC[N+](CC(=O)O)(CC6CNC6)CC5)CC4)c(Cl)c3)n2C)c(Cl)c1F (stereo not shown) [Example C40, 2-[1-(azetidin-3-ylmethyl)-4-[4-[2-chloro-4-[[5-(2-chloro-3-fluoro-4-methoxy-phenyl)-1-methyl-imidazole-2-carbonyl]amino]benzoyl]piperazine-1-carbonyl]piperidin-1-ium-1-yl]acetic acid; formate], the IC90 is reported as 540 nM.
Cn1c(-c2ccc(OCF)c(F)c2Cl)cnc1C(=O)Nc1ccc(C(=O)N2CCN(C(=O)C3CC[N+](CC(=O)O)(CC4CNC4)CC3)CC2)c(Cl)c1 (stereo not shown) [Example C41, 2-[1-(azetidin-3-ylmethyl)-4-[4-[2-chloro-4-[[5-[2-chloro-3-fluoro-4-(fluoromethoxy)phenyl]-1-methyl-imidazole-2-carbonyl]amino]benzoyl]piperazine-1-carbonyl]piperidin-1-ium-1-yl]acetic acid formate] gave an IC90 of 480 nM.

From US20240376073A1 (Hoffmann-La Roche Inc., priority 2021, published 2024)
